# Experiments:
# [1] = test system: colon cancer cell lines with mutated KRAS; test: Anti-proliferative activity, colon cancer cell lines with mutated KRAS; type: cell-based; conditions: Homo sapiens; range over HCT116 and SW620
# Description: These differences may be due to differing effects on cellular proliferation mechanisms, on cellular uptake and/or intracellular distribution. Assuming a passive diffusion membrane transport for IQcs, compound 2d is expected to accumulate more inside cells due to its predicted higher lipophilicity than compounds with an additional protonated basic group at physiologic pH (3d and 3e). Similarly, the tetra-cationic porphyrin TMPyP4, which is known to have low cell-membrane permeability, gave higher IC50 values.
# HCT116 human colon carcinoma cells, SW620 human colorectal adenocarcinoma and HEK293 T human embryonic kidney cells were grown in Dulbecco's modified Eagle's medium (DMEM) supplemented with 10% fetal bovine serum, and 1% antibiotic/antimycotic (Invitrogen, Grand Island, NY, USA) and maintained at 37°C in a humidified atmosphere of 5% CO2. […] Following 72 h of compound exposure, cell viability was evaluated using the CellTiter 96 AQueous Non-Radioactive Cell Proliferation Assay (Promega, Madison, WI, USA), using 3-(4,5-dimethylthiazol-2-yl)-5-(3-carboxymethoxyphenyl)-2-(4-sulfophenyl)-2H-tetrazolium, inner salt (MTS) as previously described. Cell viability data were expressed as mean ± SEM or mean ± SD from at least three independent experiments. IC50 and IC65 values were determined using GaphPad Prism v.5.00 (GraphPad Software). […]
# [2] = test system: p21^KRAS protein in HCT116 cells; test: p21KRAS protein immunoblot, HCT116; type: cell-based, human; conditions: IC50 concentration, 72 h; cell line not given
# Description: (a) KRAS mRNA steady-state expression was evaluated by Taqman Real-time RT-PCR using specific Taqman Assays for KRAS and β-Actin for normalization. KRAS mRNA steady-state expression levels were calculated by the ΔΔCt method, using DMSO (vehicle control) for calibration; and (b) KRAS protein steady-state expression evaluated by immunoblot relative to control (DMSO vehicle) Results are expressed as mean ± SEM of at least three independent experiments; *p < 0.05 and §p < 0.01 from DMSO (vehicle control).
# In agreement with its reported capacity to accumulate in cytoplasm, bind to UTR1 and UTR2 RNA G4[14][20] and inhibit NRAS translation, TMPyP4 reduced the levels of p21^KRAS by ~75% in HCT116 cells. […]
# Samples were homogenized in ice-cold 1:1 solution of buffer A [10 mm Tris•HCl pH 7.6, 5 mm MgCl2, 1.5 mm KOAc, 2 mm dithiothreitol (DTT), and Halt Protease and Phosphatase inhibitor cocktail, EDTA-free (#78445, Thermo Scientific)] and buffer 2X (10 mm Tris•HCl pH 7.6, 1% Nonidet-P40, and Halt Protease and Phosphatase inhibitor cocktail), by vigorous vortexing and incubated on ice for 30 min. […] Protein concentrations were determined using the BioRad protein assay kit according to the manufacturer’s instructions. Steady-state levels of KRAS protein were determined by immunoblot analysis. […] Steady-state protein levels were expressed as mean ±SEM from at least three independent experiments.
smiles,measurement,setting,value
CCN(CC)CCCNc1ccc2c(c1)c1[nH]c3ccccc3c1c[n+]2C [2d],IC50,[1],140 to 500 nM
same,KRAS protein levels reduced to (% remaining),[2],~ 50%
